Test results reported in US20230332232A1, “COMPOSITIONS AND METHODS FOR DIAGNOSING AND TREATING A DYSTONIA” (Duke University, priority 2020, published 2023).

Tested on: DYT1 knockin (Tor1a^delGAG/+) murine embryonic fibroblasts (MEFs)
Test: microRNA-seq of EVs from DYT1 MEFs treated with drug, compared with non-treated DYT1 MEFs
Format: cell-based, mouse
Procedure: In addition to proteomic analysis, total RNA-seq and microRNA-seq was performed on RNA isolated in parallel from the EV samples of Cohort 2. As with the proteomic analysis, one biological replicate was prepared from 3 distinct biological clonal cell lines for each genotype. Here, EVs were isolated from conditioned cell culture media by 18 hour ultracentrifugation at 100,000 g. RNA was extracted using the Qiagen miRNeasy Micro Kit (Cat. No. 217084) according to the manufacturer's protocol. Two RNA fractions were extracted from each sample, one enriched in coding and non-coding RNA species>200 nt (“Total RNA” fraction) and one enriched for small RNAs<200 nt (“miRNA” fraction). RNA samples were then submitted to the Duke Sequencing and Genomic Technologies shared resource for further quality control and sequencing. Samples were assessed for concentration and integrity by Qubit and Fragment Analyzer. The miRNA fractions were 4.16 ng/μL-47.57 ng/μL and total RNA fractions were 3.8 ng/μL-43.6 ng/μL. The small RNA library was prepared using the QIAseq miRNA Library Kit (Cat No./ID: 331505) and sequenced on the Illumina NextSeq 500 High-Output platform with 75 bp single-reads. The total RNA library was prepared using the Illumina TruSeq Stranded Total RNA-seq Kit with Ribozero Gold ribosomal RNA reduction and sequenced on the Illumina NovaSeq 6000 S1 platform with 100 bp paired-end reads. Sequencer lane pooling and read depth are attached in the Excel data summary (See “RNA QC” Tab). Data processing and analysis were performed in collaboration with the Duke Genomic Analysis and Bioinformatics shared resource. RNA-seq data was processed using the TrimGalore toolkit (http://www.bioinformatics.babraham.ac.uk/projects/trim_galore), which employs Cutadapt(Martin M. (2011) EMBnet.journal. 17(1):10-12) to trim low quality bases and Illumina sequencing adapters from the 3' end of the reads. Only reads that were 20 nt or longer after trimming were kept for further analysis. Reads were mapped to the mouse genome and transcriptome ([…], et al. (2012) Nucleic Acids Res. 40(Database issue):[…]-97) using the STAR RNA-seq alignment tool (Dobin A, et al. (2013). Bioinformatics. 29(1):15-21). If the reads mapped to a single genomic location, then they were kept for subsequent analysis. Gene counts were compiled using the HTSeq tool (http://www-huber.embl.de/users/anders/HTSeq/). Only genes that had at least 10 reads in any given library were used in subsequent analysis. Normalization and differential expression was carried out using the DESeq26 Bioconductor (Huber W, et al. (2015) Nat Methods. 12(2):115-121) package with the R statistical programming environment (www.r-project.org). […] 694 miRNAs were initially examined with respect to QC, genotype, RTV effects, and ISRIB effects. This subset was the “Full miRNA” subset. FIG. 9A and FIG. 9B show the RTV effect on EV composition in DYT1 cells compared to WT cells for 279 miRNAs, respectively. […] Beginning with the 694 miRNAs in the “Full miRNA” subset, more than 60 molecules were detected in either WT cells or DYT1 cells (WT or Het UMI>60). […] The candidate miRNAs were ranked by the sum of genotype-dependent absolute Z-scores and RTV-induced absolute Z-scores (Abs Z Score Sum (Geno+RTV)). This subset was the “miRNA-Ritonavir Therapeutic Efficacy” subset and contained 201 miRNAs.

[1] = RTV-treated vs non-treated DYT1 (Het) MEF EVs
[2] = mmu-miR-34a-5p, EVs of DYT1 (Het) MEFs
[3] = mmu-miR-34c-5p, EVs of DYT1 (Het) MEFs
[4] = mmu-miR-96-5p, EVs of DYT1 (Het) MEFs
[5] = mmu-miR-125b-1-3p, EVs of DYT1 (Het) MEFs
[6] = mmu-miR-130b-3p, EVs of DYT1 (Het) MEFs
[7] = mmu-miR-140-3p, EVs of DYT1 (Het) MEFs
[8] = mmu-miR-148a-3p, EVs of DYT1 (Het) MEFs
[9] = mmu-miR-182-5p, EVs of DYT1 (Het) MEFs

## CC(C)c1nc(CN(C)C(=O)N[C@H](C(=O)N[C@@H](Cc2ccccc2)C[C@H](O)[C@H](Cc2ccccc2)NC(=O)OCc2cncs2)C(C)C)cs1 [RTV, Ritonavir]
DYT1 cells, miRNA-Ritonavir Therapeutic Efficacy subset, 201 miRNAs
  direction of modulated EV miRNA expression: modulated expression in a therapeutic direction
EV miRNA mmu−let−7c−5p (housekeeping)
  RTV Direction Opposite dE?: yes
EV miRNA mmu−miR−22−3p
  RTV Direction Opposite dE?: yes
EV miRNA mmu−miR−34a−5p
  RTV Direction Opposite dE?: yes
EV miRNA mmu−miR−96−5p
  RTV Direction Opposite dE?: yes
EV miRNA mmu−miR−135a−5p
  RTV Direction Opposite dE?: yes
EV miRNA mmu−miR−182−5p
  RTV Direction Opposite dE?: yes
EV miRNA mmu−miR−183−5p
  RTV Direction Opposite dE?: yes
EV miRNA mmu−miR−199a−3p
  RTV Direction Opposite dE?: yes
EV miRNA mmu−miR−296−3p
  RTV Direction Opposite dE?: yes
EV miRNA mmu−miR−542−5p
  RTV Direction Opposite dE?: yes
[1]
  mmu-miR-147-5p: RTVvHet Z Score: −0.07
  mmu-miR-181a-1-3p: RTVvHet Z Score: 0.08
  mmu-miR-331-5p: RTVvHet Z Score: 0.00
  mmu-miR-668-3p: RTVvHet Z Score: 0.31
  mmu-miR-1930-5p: RTVvHet Z Score: 0.00
  mmu-miR-1943-5p: RTVvHet Z Score: 0.23
  mmu-miR-1955-5p: RTVvHet Z Score: 0.00
  mmu-miR-3072-5p: RTVvHet Z Score: −0.38
  mmu-miR-3076-3p: RTVvHet Z Score: 0.00
  mmu-miR-3088-3p: RTVvHet Z Score: 0.18
  mmu-miR-6936-3p: RTVvHet Z Score: 0.00
  mmu-miR-7224-3p: RTVvHet Z Score: −0.17
  mmu-miR-467d-3p: RTVvHet Z Score: −0.11
mmu-let-7a-1-3p
  RTVvHet Z Score: 0.62
mmu-let-7c-2-3p
  RTVvHet Z Score: 0.62
mmu-let-7f-5p, EVs of DYT1 (Het) MEFs
  RTV Direction Opposite dE?: yes
mmu-let-7g-5p
  RTVvHet Z Score: 0.50
mmu-let-7i-3p
  RTVvHet Z Score: 1.15
mmu-let-7i-5p, EVs of DYT1 (Het) MEFs
  RTV Direction Opposite dE?: yes
mmu-miR-30e-5p, EVs of DYT1 (Het) MEFs
  RTV Direction Opposite dE?: yes
mmu-miR-30e-3p
  RTVvHet Z Score: 0.49
mmu-miR-15a-5p
  RTVvHet Z Score: 0.22
mmu-miR-16-5p
  RTVvHet Z Score: 0.21
mmu-miR-17-3p
  RTVvHet Z Score: 0.02
mmu-miR-19b-3p, EVs of DYT1 (Het) MEFs
  RTV Direction Opposite dE?: yes
mmu-miR-22-3p
  RTVvHet Z Score: 1.26
mmu-miR-22-3p, EVs of DYT1 (Het) MEFs
  RTV Direction Opposite dE?: yes
mmu-miR-23a-3p
  RTVvHet Z Score: 0.46
mmu-miR-25-3p
  RTVvHet Z Score: 0.71
mmu-miR-26b-Sp, EVs of DYT1 (Het) MEFs
  RTV Direction Opposite dE?: yes
mmu-miR-29b-3p
  RTVvHet Z Score: 0.53
mmu-miR-29c-3p
  RTVvHet Z Score: 1.17
mmu-miR-30a-5p
  RTVvHet Z Score: 0.97
mmu-miR-30a-5p, EVs of DYT1 (Het) MEFs
  RTV Direction Opposite dE?: yes
mmu-miR-30b-5p
  RTVvHet Z Score: 1.23
mmu-miR-30c-5p (1st line so named)
  RTVvHet Z Score: 1.38
mmu-miR-30c-5p (2nd line so named)
  RTVvHet Z Score: 1.07
mmu-miR-30c-5p, EVs of DYT1 (Het) MEFs
  RTV Direction Opposite dE?: yes
mmu-miR-31-3p
  RTVvHet Z Score: 0.83
mmu-miR-31-5p
  RTVvHet Z Score: 1.41
mmu-miR-31-5p, EVs of DYT1 (Het) MEFs
  RTV Direction Opposite dE?: yes
mmu-miR-32-5p
  RTVvHet Z Score: 0.75
mmu-miR-33-5p
  RTVvHet Z Score: 1.52
mmu-miR-34a-5p
  RTVvHet Z Score: 1.38
[2]
  Abs Z Score Sum (Geno + RTV): 3.80
  RTV Direction Opposite dE?: yes
mmu-miR-34b-5p
  RTVvHet Z Score: 1.55
mmu-miR-34c-3p
  RTVvHet Z Score: 0.78
mmu-miR-34c-5p
  RTVvHet Z Score: 1.33
[3]
  Abs Z Score Sum (Geno + RTV): 3.36
  RTV Direction Opposite dE?: yes
mmu-miR-93-5p, EVs of DYT1 (Het) MEFs
  RTV Direction Opposite dE?: yes
mmu-miR-96-5p
  RTVvHet Z Score: 3.10
[4]
  Abs Z Score Sum (Geno + RTV): 5.01
  RTV Direction Opposite dE?: yes
mmu-miR-98-5p
  RTVvHet Z Score: 0.42
mmu-miR-99a-5p
  RTVvHet Z Score: 0.73
mmu-miR-101b-3p
  RTVvHet Z Score: 0.52
mmu-miR-103-3p, EVs of DYT1 (Het) MEFs
  RTV Direction Opposite dE?: yes
mmu-miR-106b-3p
  RTVvHet Z Score: 0.15
mmu-miR-106b-5p
  RTVvHet Z Score: 0.54
mmu-miR-124-3p
  RTVvHet Z Score: −1.59
mmu-miR-125b-1-3p
  RTVvHet Z Score: 1.02
[5]
  Abs Z Score Sum (Geno + RTV): 3.85
  RTV Direction Opposite dE?: yes
mmu-miR-130b-3p
  RTVvHet Z Score: 1.50
[6]
  Abs Z Score Sum (Geno + RTV): 3.92
  RTV Direction Opposite dE?: yes
mmu-miR-135a-5p, EVs of DYT1 (Het) MEFs
  RTV Direction Opposite dE?: yes
mmu-miR-136-3p
  RTVvHet Z Score: 1.52
mmu-miR-140-3p
  RTVvHet Z Score: 2.54
[7]
  Abs Z Score Sum (Geno + RTV): 4.39
  RTV Direction Opposite dE?: yes
mmu-miR-146a-5p
  RTVvHet Z Score: 0.10
mmu-miR-148a-3p
  RTVvHet Z Score: 1.86
[8]
  Abs Z Score Sum (Geno + RTV): 3.69
  RTV Direction Opposite dE?: yes
mmu-miR-148b-3p
  RTVvHet Z Score: 0.58
mmu-miR-149-5p
  RTVvHet Z Score: 0.33
mmu-miR-151-5p
  RTVvHet Z Score: 0.32
mmu-miR-152-3p
  RTVvHet Z Score: 0.76
mmu-miR-181a-5p
  RTVvHet Z Score: 0.31
mmu-miR-181b-5p
  RTVvHet Z Score: 0.54
mmu-miR-181c-5p
  RTVvHet Z Score: 0.88
mmu-miR-182-5p
  RTVvHet Z Score: 5.33
[9]
  Abs Z Score Sum (Geno + RTV): 7.27
  RTV Direction Opposite dE?: yes
